This is an account of results in US11040981B2, “Pyrrolotriazine compounds and methods of inhibiting TAM kinases” (Syros Pharmaceuticals, Inc., priority 2017, dated 2021).

The target of one assay is T1, TYRO3 (Homo sapiens, UniProt Q06418).
T1 sequence (Q06418 41-890): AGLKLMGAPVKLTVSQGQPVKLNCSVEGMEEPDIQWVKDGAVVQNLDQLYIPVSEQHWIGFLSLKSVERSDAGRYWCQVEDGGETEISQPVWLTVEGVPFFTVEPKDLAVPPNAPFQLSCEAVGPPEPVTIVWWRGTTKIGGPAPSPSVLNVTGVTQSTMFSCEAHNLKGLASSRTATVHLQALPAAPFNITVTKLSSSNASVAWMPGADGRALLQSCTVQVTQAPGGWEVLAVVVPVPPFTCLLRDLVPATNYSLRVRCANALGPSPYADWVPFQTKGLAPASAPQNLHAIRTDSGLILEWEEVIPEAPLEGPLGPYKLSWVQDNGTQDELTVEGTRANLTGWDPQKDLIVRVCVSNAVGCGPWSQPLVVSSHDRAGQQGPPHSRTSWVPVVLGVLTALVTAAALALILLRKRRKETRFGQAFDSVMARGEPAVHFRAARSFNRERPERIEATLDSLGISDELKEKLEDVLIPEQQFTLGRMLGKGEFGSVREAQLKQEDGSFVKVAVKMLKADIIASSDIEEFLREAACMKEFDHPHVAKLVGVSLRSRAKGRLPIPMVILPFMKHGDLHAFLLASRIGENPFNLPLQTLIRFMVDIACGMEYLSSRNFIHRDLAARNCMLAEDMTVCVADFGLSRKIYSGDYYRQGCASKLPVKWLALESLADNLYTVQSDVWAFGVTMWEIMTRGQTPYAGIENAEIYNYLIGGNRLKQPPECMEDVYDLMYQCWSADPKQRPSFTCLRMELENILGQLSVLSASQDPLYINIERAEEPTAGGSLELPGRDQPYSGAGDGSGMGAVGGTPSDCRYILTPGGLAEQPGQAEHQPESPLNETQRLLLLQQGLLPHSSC
The assay can be described thus: TR-FRET kinase activity assay, TYRO3. The following applies: ATP at Km, 60 minutes. The class given is biochemical. In short, it runs like this:
(§1)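 Enzyme + labelled peptide + cpd premixed; ATP at per-enzyme Km starts rxn. 60 min RT, HEPES pH 7.5/MgCl2/EGTA/Brij 35/DTT buffer. Stop 12.5 mM EDTA, Eu phospho-Ab 30 min dark, TR-FRET read → IC50.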
Background: TR-FRET usually uses a lanthanide donor and a delayed reading to cut background.

A further assay deals with T2, AXL (Homo sapiens, UniProt P30530).
T2 sequence (P30530 26-894): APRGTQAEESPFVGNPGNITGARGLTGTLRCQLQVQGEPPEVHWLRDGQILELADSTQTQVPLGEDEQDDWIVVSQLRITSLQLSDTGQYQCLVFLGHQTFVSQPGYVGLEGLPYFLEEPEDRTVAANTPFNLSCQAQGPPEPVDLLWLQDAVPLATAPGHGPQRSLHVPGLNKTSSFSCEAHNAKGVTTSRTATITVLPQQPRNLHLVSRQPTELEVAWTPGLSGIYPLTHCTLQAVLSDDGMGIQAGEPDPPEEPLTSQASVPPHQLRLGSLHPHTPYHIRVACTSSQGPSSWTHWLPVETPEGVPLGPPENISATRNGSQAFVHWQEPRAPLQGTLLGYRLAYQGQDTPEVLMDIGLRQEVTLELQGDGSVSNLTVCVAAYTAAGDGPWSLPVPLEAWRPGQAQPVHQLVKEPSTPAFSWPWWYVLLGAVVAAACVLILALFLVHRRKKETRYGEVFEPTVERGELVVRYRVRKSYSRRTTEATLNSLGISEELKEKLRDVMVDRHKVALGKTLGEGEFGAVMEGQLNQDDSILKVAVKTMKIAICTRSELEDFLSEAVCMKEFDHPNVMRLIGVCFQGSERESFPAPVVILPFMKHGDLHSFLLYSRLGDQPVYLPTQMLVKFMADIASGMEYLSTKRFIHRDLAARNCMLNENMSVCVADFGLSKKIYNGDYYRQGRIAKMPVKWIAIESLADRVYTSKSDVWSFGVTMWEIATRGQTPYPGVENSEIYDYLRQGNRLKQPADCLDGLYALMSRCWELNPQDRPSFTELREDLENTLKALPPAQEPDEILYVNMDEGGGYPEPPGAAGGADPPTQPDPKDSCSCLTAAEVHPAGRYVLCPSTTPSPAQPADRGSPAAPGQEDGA
The assay can be described thus: TR-FRET kinase activity assay, AXL. Format: biochemical. The following applies: ATP at Km, 60 minutes. In short, it runs like this:
as §1

Usually IC50 stands for the point on the concentration scale where inhibition reaches its midpoint. Lower therefore signals inhibition by little substance.

As to `COC[C@H](C)Nc1ncc2c(-c3cnn(C(C)(C)C(=O)N4CCC(C)(O)CC4)c3)cc([C@H]3CC[C@H](O)CC3)n2n1` [Compound 450], the half-inhibitory concentration (IC50) at TYRO3 and against AXL was at most 100 nM each time.

In the case of `COC[C@H](C)Nc1ncc2c(-c3cnn(C(C)(C)C(=O)N4CCC(C)(C#N)CC4)c3)cc([C@H]3CC[C@H](O)CC3)n2n1` [Compound 451], the concentration for half-maximal inhibition (IC50) against TYRO3 and against AXL was at most 100 nM each time.

On to `C[C@H](CC(F)(F)F)Nc1ncc2c(C3=C[C@H]4CC[C@@H](C3)N4C(=O)OC(C)(C)C)cc([C@H]3CC[C@H](O)CC3)n2n1` [Compound 456], for which the IC50 against TYRO3 and against AXL was at most 100 nM in each case.

On to `COC[C@H](C)Nc1ncc2c(-c3cnn(C(C)(C)CN4CCOCC4)c3)cc([C@H]3CC[C@H](O)CC3)n2n1` [Compound 459], for which the IC50 at TYRO3 and at AXL was at most 100 nM throughout.

With `COC[C@H](C)Nc1ncc2c(-c3ccc(C(C)(C)C(=O)N4CCOCC4)s3)cc([C@H]3CC[C@H](O)CC3)n2n1` [Compound 460], the concentration for half-maximal inhibition (IC50) on TYRO3 and at AXL was at most 100 nM throughout.

As for `COC[C@H](C)Nc1ncc2c(C3=C[C@@H]4CC[C@H](C3)N4)cc([C@H]3CC[C@H](O)CC3)n2n1` [Compound 461], the half-maximal inhibitory concentration (IC50) against TYRO3 and against AXL was at most 100 nM throughout.

As to `COC[C@H](C)Nc1ncc2c(C3=C[C@@H]4CC[C@H](C3)N4C(C)=O)cc([C@H]3CC[C@H](O)CC3)n2n1` [Compound 462], the IC50 at TYRO3 and against AXL was at most 100 nM in each case.

As to `COC[C@H](C)Nc1ncc2c(C3=C[C@@H]4CC[C@H](C3)N4C(=O)N3CCOCC3)cc([C@H]3CC[C@H](O)CC3)n2n1` [Compound 463], the IC50 against TYRO3 and against AXL was at most 100 nM in each case.

With `COC[C@H](C)Nc1ncc2c(-c3cccc(N4C[C@H]5COC[C@H]5C4)c3)cc([C@H]3CC[C@H](O)CC3)n2n1` [Compound 464], the IC50 on TYRO3 and on AXL was at most 100 nM in each case.

`COC[C@H](C)Nc1ncc2c(C3=C[C@@H]4CC[C@H](C3)N4C)cc([C@H]3CC[C@H](O)CC3)n2n1` [Compound 465]: the IC50 at TYRO3 and at AXL was at most 100 nM each time.

For `COC[C@H](C)Nc1ncc2c(-c3cnn(C(C)(C)C(=O)N4CCN(C)CC4)c3)cc([C@H]3CC[C@H](O)CC3)n2n1` [Compound 466], the concentration for half-maximal inhibition (IC50) against TYRO3 and on AXL was at most 100 nM in each case.

Take `COC[C@H](C)Nc1ncc2c(C3=C[C@H]4CC[C@@H](C3)N4)cc([C@H]3CC[C@H](O)CC3)n2n1` [Compound 467]: the concentration for half-maximal inhibition (IC50) at TYRO3 and at AXL was at most 100 nM each time.

Take `COC[C@H](C)Nc1ncc2c(C3=C[C@H]4CCC(C3)N4C(C)=O)cc([C@H]3CC[C@H](O)CC3)n2n1` [Compound 468]: the 50% inhibitory concentration (IC50) against TYRO3 and against AXL was at most 100 nM in each case.

For the compound `COC[C@H](C)Nc1ncc2c(C3=C[C@H]4CC[C@@H](C3)N4C(=O)N3CCOCC3)cc([C@H]3CC[C@H](O)CC3)n2n1` [Compound 469], the IC50 against TYRO3 and at AXL was at most 100 nM in each case.

Consider `COC[C@H](C)Nc1ncc2c(-c3cnn([C@H]4CCN(C)C4=O)c3)cc([C@H]3CC[C@H](O)CC3)n2n1` [Compound 470], for which the concentration for half-maximal inhibition (IC50) against TYRO3 and on AXL was at most 100 nM in each case.

On to `COC[C@H](C)Nc1ncc2c(-c3cnn([C@@H]4CCN(C)C4=O)c3)cc([C@H]3CC[C@H](O)CC3)n2n1` [Compound 471], for which the concentration for half-maximal inhibition (IC50) on TYRO3 and on AXL was at most 100 nM each time.

With `COC[C@H](C)Nc1ncc2c(-c3cnn(C[C@@H]4CC(=O)N(C)C4)c3)cc([C@H]3CC[C@H](O)CC3)n2n1` [Compound 473], the IC50 on TYRO3 and against AXL was at most 100 nM each time.

For `COC[C@H](C)Nc1ncc2c(-c3cnn(C[C@@H]4CCO4)c3)cc([C@H]3CC[C@H](O)CC3)n2n1` [Compound 474], the IC50 on TYRO3 and against AXL was at most 100 nM in each case.

Consider `COC[C@H](C)Nc1ncc2c(-c3cnn(C[C@H]4CC(=O)N(C)C4)c3)cc([C@H]3CC[C@H](O)CC3)n2n1` [Compound 475], for which the IC50 against TYRO3 and against AXL was at most 100 nM throughout.

With `COC[C@H](C)Nc1ncc2c(-c3cnn(C[C@@H]4CCO4)c3)cc([C@H]3CC[C@H](O)CC3)n2n1` [Compound 478], the IC50 at TYRO3 and at AXL was at most 100 nM throughout.

Regarding `COC[C@H](C)Nc1ncc2c(-c3ccnc(N4Cc5nc(C)sc5C4)c3)cc([C@H]3CC[C@H](O)CC3)n2n1` [Compound 479, (trans)-4-(2-(((S)-1-methoxypropan-2-yl)amino)-5-(2-(2-methyl-4H-pyrrolo[3,4-d]thiazol-5(6H)-yl)pyridin-4-yl)pyrrolo[2,1-f][1,2,4]triazin-7-yl)cyclohexanol], the concentration for half-maximal inhibition (IC50) against TYRO3 and at AXL was at most 100 nM throughout.

In the case of `COC[C@H](C)Nc1ncc2c(-c3ccnc(N4CCOC5(COC5)C4)c3)cc([C@H]3CC[C@H](O)CC3)n2n1` [Compound 480], the IC50 against TYRO3 and against AXL was at most 100 nM in each case.

For the compound `COC[C@H](C)Nc1ncc2c(C#N)cc([C@H]3CC[C@H](O)CC3)n2n1` [Compound 481], the IC50 was in the range of 100 to 1000 nM on TYRO3 and 1000 to 10000 nM against AXL.

`COC[C@H](C)Nc1ncc2c([C@H]3CC[C@@H](C(=O)N4CCOCC4)CC3)cc([C@H]3CC[C@H](O)CC3)n2n1` [Compound 484]: the 50% inhibitory concentration (IC50) against TYRO3 is at most 100 nM; on AXL it was 100 to 1000 nM.

Take `COC[C@H](C)Nc1ncc2c(C3=C[C@@H]4CC[C@H](C3)N4CC(F)(F)F)cc([C@H]3CC[C@H](O)CC3)n2n1` [Compound 485]: the IC50 at TYRO3 and on AXL was at most 100 nM each time.

For `COC[C@H](C)Nc1ncc2c(-c3ccnc(N4CCN(C5COC5)CC4)c3)cc([C@H]3CC[C@H](O)CC3)n2n1` [Compound 486], the IC50 at TYRO3 and at AXL was at most 100 nM each time.

Turning to `COC[C@H](C)Nc1ncc2c(-c3ccnc(N4CCN(S(=O)(=O)C(F)(F)F)CC4)c3)cc([C@H]3CC[C@H](O)CC3)n2n1` [Compound 487], the IC50 is at most 100 nM against TYRO3 and 100 to 1000 nM at AXL.

`COC[C@H](C)Nc1ncc2c(-c3cnn(C(C)(C)C(=O)N4CCOCC4)c3)cc(C3CCc4[nH]ncc4C3)n2n1` (stereo partly drawn) [Compound 488]: the concentration for half-maximal inhibition (IC50) against TYRO3 and against AXL was at most 100 nM in each case.

In the case of `C[C@@H](CC(F)F)Nc1ncc2c(-c3ccc(S(C)(=O)=O)nc3)cc([C@H]3CC[C@H](O)CC3)n2n1` [Compound 489], the IC50 on TYRO3 and on AXL was at most 100 nM in each case.

With `COC[C@H](C)Nc1ncc2c(-c3ccnc(Oc4cccnc4)c3)cc([C@H]3CC[C@H](O)CC3)n2n1` [Compound 490], the IC50 at TYRO3 and against AXL was at most 100 nM each time.

For the compound `COC[C@H](C)Nc1ncc2c(-c3ccnc(N4CCN(S(=O)(=O)C5CC5)CC4)c3)cc([C@H]3CC[C@H](O)CC3)n2n1` [Compound 491], the IC50 at TYRO3 and against AXL was at most 100 nM each time.

On to `COC[C@H](C)Nc1ncc2c(C3=C[C@H]4CC[C@@H](C3)N4CC(F)(F)F)cc([C@H]3CC[C@H](O)CC3)n2n1` [Compound 492], for which the IC50 at TYRO3 and at AXL was at most 100 nM in each case.

As for `COC[C@H](C)Nc1ncc2c(-c3ccnc(N4CCC5(COC5)C4)c3)cc([C@H]3CC[C@H](O)CC3)n2n1` [Compound 493], the IC50 against TYRO3 and at AXL was at most 100 nM throughout.
